Experimental data taken from ChEMBL document CHEMBL1147496, “Synthesis and anti-inflammatory activity of some [4,6-(4-substituted aryl)-2-thioxo-1,2,3,4-tetrahydro-pyrimidin-5-yl]-acetic acid derivatives” (2004).

Test system: Rattus norvegicus
Assay: Anti-inflammatory activity was determined by carangeenan-induced rat paw edema test in albino rats
Assay type: functional
Design: concentration or dose not given beside the values

SMILES	Inhibition [%]
O=C(O)CC1=C(c2ccc(Cl)cc2)N=C(S)NC1c1cccs1 (stereo not drawn)	16
Cc1ccc(C2=C(CC(=O)O)C(c3ccccc3)NC(S)=N2)cc1 (stereo not drawn)	28
O=C(O)CC1=C(c2ccc(Cl)cc2)N=C(S)NC1c1ccc(Cl)cc1 (stereo not drawn)	25
O=C(O)CC1=C(c2ccc(Cl)cc2)N=C(S)NC1c1ccco1 (stereo not drawn)	9
O=C(O)CC1=C(c2ccccc2)N=C(S)NC1c1ccccc1 (stereo not drawn)	17
O=C(O)CC1=C(c2ccccc2)N=C(S)NC1c1cccnc1 (stereo not drawn)	15
O=C(O)CC1=C(c2ccccc2)N=C(S)NC1c1cccs1 (stereo not drawn)	21
Cc1ccc(C2=C(CC(=O)O)C(c3ccc(Cl)cc3)NC(S)=N2)cc1 (stereo not drawn)	22
COc1ccc(C2NC(S)=NC(c3ccc(Cl)cc3)=C2CC(=O)O)cc1 (stereo not drawn)	35
COc1ccc(C2NC(S)=NC(c3ccc(C)cc3)=C2CC(=O)O)cc1 (stereo not drawn)	33
Cc1ccc(C2=C(CC(=O)O)C(c3cccs3)NC(S)=N2)cc1 (stereo not drawn)	10
O=C(O)CC1=C(c2ccc(Cl)cc2)N=C(S)NC1c1cccnc1 (stereo not drawn)	11
O=C(O)CC1=C(c2ccccc2)N=C(S)NC1c1ccc(Cl)cc1 (stereo not drawn)	30
O=C(O)CC1=C(c2ccccc2)N=C(S)NC1c1ccco1 (stereo not drawn)	19
COc1ccc(C2NC(S)=NC(c3ccccc3)=C2CC(=O)O)cc1 (stereo not drawn)	32
Cc1ccc(C2=C(CC(=O)O)C(c3ccco3)NC(S)=N2)cc1 (stereo not drawn)	11
Cc1ccc(C2=C(CC(=O)O)C(c3cccnc3)NC(S)=N2)cc1 (stereo not drawn)	7
O=C(O)CC1=C(c2ccc(Cl)cc2)N=C(S)NC1c1ccccc1 (stereo not drawn)	20
